This is an account of results in patent publication US11529356B2, “2-(morpholin-4-yl)-1,7-naphthyridines” (Bayer Pharma Aktiengesellschaft, priority 2014, dated 2022).

Assay [1] deals with full-length human ATR protein (Homo sapiens (Human), UniProt Q13535). Description: Binding Assay ATR (TR-FRET tracer displacement). The following applies: tracer A.
Excerpt: To determine of binding activity of the test compounds, full-length human ATR protein was expressed and purified together with ATRIP as described above. Furthermore, a fluorescently labelled compound (either tracer A or B as described above) was used as a tracer molecule. Detection of the binding event of the tracer was achieved by time-resolved fluorescence energy transfer (TR-FRET). We used an anti-GST-Terbium antibody (CisBio) that binds to the GST-tag at the N-terminus of ATR-kinase. […] Displacement of the fluorescent tracer by a test compound leads to a reduction of the TR-FRET-signal.
For the assay 50 nl of a 100-fold concentrated solution of the test compound in DMSO was pipetted into a black low volume 384 well microtiter plate (MTP, Greiner Bio-One, Frickenhausen, Germany). […] The ATR-working solution was incubated for 30 min at 22° C. prior to dispensing to pre-form the complex of antiGST-Tb+GST-ATR+ATRIP. Then, 3 μl of the ATR-working solution were added to the test compound and the mixture was incubated for 10 min at 22° C. to allow pre-binding of the test compounds to ATR/ATRIP. Then, 2 μl of a 100 nM solution of either tracer A or B in assay buffer were added to the ATR-working solution. The resulting mixture was incubated for 30 min at 22° C. […] IC50 values were calculated by a 4 parameter fit using standard software (GraphPad prism or equivalent).
Assay [2] has as its system Caco-2 cells. Briefly: Proliferation Assay Caco-2 (crystal violet). The class given is cell-based. The following applies: Homo sapiens, Caco-2, Caco-2 cells; read-out: Inhibition of Caco-2 cell proliferation IC50.
Description: After 24 hours, the cells of one plate (zero plate) were dyed with crystal violet (see below), whereas the medium of the other plates was replaced with fresh culture medium (200 μl) to which the test substances were added in various concentrations (0 μM, and also in the range of 0.001-10 μM; the final concentration of the solvent dimethyl sulphoxide was 0.1 or 0.5%). The cells were incubated for 4 days in the presence of the test substances. […] After washing the fixed cells three times with water, the plates were dried at room temperature. The cells were stained by adding 100 μl/measurement point of a 0.1% strength crystal violet solution (pH adjusted to pH 3 by adding acetic acid). After washing the cells three times with water, the plates were dried at room temperature. The dye was dissolved by adding 100 μl/measurement point of a 10% strength acetic acid solution. […] The percentage change in cell growth was calculated by normalizing the measured values to the absorbance values of the zero plate (=0%) and the absorbance of the untreated (0 μM) cells (=100%). The IC50 values were determined by means of a four parameter fit.

A value given as a limit tells only on which side of the number the result lay.

full-length human ATR protein, sequence (Q13535 other isoform, or with tags, fused parts or gaps): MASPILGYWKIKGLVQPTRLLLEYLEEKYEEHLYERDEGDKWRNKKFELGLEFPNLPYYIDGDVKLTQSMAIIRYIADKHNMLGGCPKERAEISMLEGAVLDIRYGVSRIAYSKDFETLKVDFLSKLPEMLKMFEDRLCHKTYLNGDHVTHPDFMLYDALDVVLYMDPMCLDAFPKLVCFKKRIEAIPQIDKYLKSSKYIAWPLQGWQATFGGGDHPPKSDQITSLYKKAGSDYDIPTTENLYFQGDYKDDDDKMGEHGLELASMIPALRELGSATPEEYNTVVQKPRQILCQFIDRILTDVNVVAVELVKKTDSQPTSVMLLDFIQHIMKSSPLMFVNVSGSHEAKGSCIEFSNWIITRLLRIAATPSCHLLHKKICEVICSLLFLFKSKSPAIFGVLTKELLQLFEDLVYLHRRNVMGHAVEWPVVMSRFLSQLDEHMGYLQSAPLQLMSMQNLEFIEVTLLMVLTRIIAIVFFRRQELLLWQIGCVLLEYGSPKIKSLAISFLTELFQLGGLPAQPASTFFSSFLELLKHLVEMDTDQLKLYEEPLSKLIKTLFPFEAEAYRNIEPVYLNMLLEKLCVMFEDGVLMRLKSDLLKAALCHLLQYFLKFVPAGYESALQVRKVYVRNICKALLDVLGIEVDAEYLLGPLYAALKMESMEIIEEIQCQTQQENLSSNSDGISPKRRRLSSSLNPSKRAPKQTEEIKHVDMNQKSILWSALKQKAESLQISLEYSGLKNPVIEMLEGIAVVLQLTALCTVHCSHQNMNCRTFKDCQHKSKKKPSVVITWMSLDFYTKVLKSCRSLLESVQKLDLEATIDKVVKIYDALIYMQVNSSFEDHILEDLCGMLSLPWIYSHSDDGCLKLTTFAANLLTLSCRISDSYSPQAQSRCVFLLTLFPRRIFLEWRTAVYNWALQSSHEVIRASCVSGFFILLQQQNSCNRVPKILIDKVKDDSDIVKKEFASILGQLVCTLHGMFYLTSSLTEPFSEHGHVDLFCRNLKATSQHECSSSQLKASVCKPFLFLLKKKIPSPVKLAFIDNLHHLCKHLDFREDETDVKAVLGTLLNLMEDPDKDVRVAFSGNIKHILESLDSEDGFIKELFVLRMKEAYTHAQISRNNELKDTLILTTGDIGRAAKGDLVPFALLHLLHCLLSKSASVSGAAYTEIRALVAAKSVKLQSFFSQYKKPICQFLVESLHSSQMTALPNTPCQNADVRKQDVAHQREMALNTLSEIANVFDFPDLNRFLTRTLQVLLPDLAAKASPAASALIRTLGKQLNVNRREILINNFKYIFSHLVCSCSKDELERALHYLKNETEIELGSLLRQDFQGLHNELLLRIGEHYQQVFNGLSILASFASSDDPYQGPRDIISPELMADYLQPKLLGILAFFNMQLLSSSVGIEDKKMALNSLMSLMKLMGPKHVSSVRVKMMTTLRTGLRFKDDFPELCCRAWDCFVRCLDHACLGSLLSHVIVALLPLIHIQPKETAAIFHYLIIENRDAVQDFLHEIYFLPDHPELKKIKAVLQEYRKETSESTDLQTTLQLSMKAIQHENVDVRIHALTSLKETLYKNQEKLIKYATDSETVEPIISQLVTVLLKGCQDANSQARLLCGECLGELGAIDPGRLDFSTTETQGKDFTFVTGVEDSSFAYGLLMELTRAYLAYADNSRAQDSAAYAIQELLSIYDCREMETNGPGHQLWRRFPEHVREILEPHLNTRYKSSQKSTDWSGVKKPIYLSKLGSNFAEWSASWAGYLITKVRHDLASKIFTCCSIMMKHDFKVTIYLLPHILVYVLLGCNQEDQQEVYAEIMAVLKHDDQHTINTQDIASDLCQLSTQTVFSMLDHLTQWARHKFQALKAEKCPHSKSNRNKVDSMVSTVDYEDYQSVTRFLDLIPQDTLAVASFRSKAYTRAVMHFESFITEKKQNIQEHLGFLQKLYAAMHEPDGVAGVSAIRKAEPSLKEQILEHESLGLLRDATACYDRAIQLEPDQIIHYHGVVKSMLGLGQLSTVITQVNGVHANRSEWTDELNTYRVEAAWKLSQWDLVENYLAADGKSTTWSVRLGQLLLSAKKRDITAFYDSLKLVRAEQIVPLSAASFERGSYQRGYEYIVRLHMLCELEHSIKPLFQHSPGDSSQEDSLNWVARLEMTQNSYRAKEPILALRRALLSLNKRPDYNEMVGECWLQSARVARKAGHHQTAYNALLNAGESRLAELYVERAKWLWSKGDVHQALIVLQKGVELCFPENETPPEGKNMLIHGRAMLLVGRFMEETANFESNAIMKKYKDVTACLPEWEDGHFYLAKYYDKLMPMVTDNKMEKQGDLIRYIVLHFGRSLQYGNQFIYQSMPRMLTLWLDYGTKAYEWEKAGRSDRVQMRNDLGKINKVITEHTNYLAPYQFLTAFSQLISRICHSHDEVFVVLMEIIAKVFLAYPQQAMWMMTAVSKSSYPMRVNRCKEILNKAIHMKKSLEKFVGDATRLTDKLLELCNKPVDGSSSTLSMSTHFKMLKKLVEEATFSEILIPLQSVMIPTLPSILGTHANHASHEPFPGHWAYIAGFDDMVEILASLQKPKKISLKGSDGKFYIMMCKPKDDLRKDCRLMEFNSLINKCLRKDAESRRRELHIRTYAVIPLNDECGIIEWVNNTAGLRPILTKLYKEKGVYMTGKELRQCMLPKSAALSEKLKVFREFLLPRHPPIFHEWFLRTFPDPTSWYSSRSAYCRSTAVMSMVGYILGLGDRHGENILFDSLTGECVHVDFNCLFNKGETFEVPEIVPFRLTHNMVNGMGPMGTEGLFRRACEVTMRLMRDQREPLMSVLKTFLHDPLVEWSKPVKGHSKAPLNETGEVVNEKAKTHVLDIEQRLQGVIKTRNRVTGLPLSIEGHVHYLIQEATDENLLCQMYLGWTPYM
full-length human ATR protein, sequence (Q8WXE1 other isoform, or with tags, fused parts or gaps partner): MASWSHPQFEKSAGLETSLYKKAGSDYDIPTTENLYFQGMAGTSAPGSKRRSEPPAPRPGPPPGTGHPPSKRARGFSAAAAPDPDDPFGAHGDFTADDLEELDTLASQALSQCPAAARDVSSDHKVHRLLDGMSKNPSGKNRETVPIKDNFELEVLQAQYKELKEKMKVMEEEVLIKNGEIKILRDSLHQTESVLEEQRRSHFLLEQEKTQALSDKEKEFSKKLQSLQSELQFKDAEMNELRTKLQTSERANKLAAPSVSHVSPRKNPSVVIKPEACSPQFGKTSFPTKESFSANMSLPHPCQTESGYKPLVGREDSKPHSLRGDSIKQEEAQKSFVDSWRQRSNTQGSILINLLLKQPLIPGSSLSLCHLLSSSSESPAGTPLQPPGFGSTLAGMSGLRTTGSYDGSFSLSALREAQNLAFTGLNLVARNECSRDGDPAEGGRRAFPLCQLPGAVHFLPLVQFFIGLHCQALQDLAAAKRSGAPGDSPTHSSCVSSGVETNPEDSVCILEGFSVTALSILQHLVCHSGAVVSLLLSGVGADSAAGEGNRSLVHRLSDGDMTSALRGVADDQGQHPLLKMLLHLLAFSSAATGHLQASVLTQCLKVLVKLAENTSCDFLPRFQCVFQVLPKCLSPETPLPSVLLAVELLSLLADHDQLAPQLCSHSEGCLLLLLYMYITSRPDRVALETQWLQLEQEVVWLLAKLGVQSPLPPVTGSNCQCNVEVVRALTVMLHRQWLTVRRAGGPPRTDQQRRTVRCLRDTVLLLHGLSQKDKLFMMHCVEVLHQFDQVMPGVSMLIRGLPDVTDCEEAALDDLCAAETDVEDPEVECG

In the case of `c1cc(-c2nccc3c(N4C[C@@H]5C[C@H]4CO5)cc(N4CCOCC4)nc23)[nH]n1` [Example 185, 2-(morpholin-4-yl)-4-[(1S,4S)-2-oxa-5-azabicyclo[2.2.1]hept-5-yl]-8-(1H-pyrazol-5-yl)-1,7-naphthyridine], in assay [1], the IC50 worked out at 852 nM. For the compound `Clc1cc(N2CCOCC2)nc2c(-c3cc[nH]n3)nccc12` [Example 62, 4-chloro-2-morpholin-4-yl-8-(1H-pyrazol-3-yl)-[1,7]naphthyridine], in assay [2], the IC50 was above 3000 nM.
